From patent US5149834A, “4-Hydroxytetrahydropyran-2-one derivatives” (Fujirebio Inc., priority 1990, dated 1992)

Assays:
rat brain homogenate = assay: Anti-oxidation function: inhibition of automatic ABARTS reproduction of rat brain homogenate; type: biochemical; details: vitamin E as reference = 100
Method: The anti-oxidation function of some examples of the 4-hydroxytetrahydropyran-2-one derivatives prepared in the above-discussedexamples was measured as a reference of the inhibition function of the automatic ABARTS reproduction of the rat brain homogenate in accordance with the method described in Nippon Yakuri-shi 87, 427-434 (1986) by K. Shintomi et al.

HMG Co-A Reductase = biological target: T1, HMG Co-A Reductase (Rattus norvegicus, UniProt P51639); assay: Measurement of inhibiting effect on HMG Co-A reductase (inhibiting ratio of biosynthesis of cholesterol); type: biochemical; details: 0.1 μM samples, compactin = 100
T1 construct: from tissue
T1 sequence (P51639 1-887): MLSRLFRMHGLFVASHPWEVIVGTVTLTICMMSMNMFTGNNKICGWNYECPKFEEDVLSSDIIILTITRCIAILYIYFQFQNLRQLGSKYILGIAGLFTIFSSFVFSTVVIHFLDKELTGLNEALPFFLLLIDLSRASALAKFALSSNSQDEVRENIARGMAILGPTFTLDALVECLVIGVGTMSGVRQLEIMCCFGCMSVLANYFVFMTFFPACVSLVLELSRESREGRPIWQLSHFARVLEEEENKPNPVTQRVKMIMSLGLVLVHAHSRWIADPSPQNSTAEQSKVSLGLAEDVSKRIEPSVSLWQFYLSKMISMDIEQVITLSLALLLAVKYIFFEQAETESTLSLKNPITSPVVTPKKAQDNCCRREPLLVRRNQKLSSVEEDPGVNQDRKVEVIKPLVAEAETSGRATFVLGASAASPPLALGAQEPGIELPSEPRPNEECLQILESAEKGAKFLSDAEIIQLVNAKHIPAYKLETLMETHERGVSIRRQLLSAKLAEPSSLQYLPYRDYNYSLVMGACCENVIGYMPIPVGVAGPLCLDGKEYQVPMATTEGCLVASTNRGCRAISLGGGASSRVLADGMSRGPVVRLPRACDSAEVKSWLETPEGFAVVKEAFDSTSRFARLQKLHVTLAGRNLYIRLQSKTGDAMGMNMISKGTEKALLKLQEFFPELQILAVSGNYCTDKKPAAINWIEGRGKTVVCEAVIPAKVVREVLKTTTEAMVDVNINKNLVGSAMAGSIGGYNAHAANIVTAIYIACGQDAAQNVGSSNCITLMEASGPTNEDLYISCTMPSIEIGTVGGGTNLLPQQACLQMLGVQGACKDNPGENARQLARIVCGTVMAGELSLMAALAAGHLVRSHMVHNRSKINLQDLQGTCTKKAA
Method: The inhibiting effect on HMG Co-A Reductase of representative examples of the 4-hydroxytetrahydropyran-2-one derivatives prepared in the above-discussed examples was measured in accordance with the method described in Journal of Biological Chemistry (J. Biol. Chem.) Vol. 234, page 2835 (1959) in order to investigate the inhibiting activity of each derivative in terms of the inhibiting ratio of the biosynthesis of cholesterol.

Row | Inhibiting Activity (Inhibiting Ratio of Biosynthesis of Cholesterol), relative value when the value of compactin is 100 (HMG Co-A Reductase) | Compound | Anti-oxidation Function (rat brain homogenate)
1 | 427 | Cc1c2c(c(CC[C@H]3C[C@H](O)CC(=O)O3)c(C(C)C)c1OCc1ccccc1)OC(C)(C)C2 (racemic) [Compound No. 81, trans-(±)-6-[5-benzyloxy-2,3-dihydro-6-(2-propyl)-2,2,4-trimethylbenzo[b]furan-7-yl]ethyl-4-hydroxytetrahydropyran-2-one] | –
2 | 190 | Cc1c2c(c(CC[C@H]3C[C@H](O)CC(=O)O3)c(C(C)(C)C)c1OCc1ccccc1)OC(C)(C)C2 (racemic) [Compound No. 112, trans-(±)-6-[5-benzyloxy-6-(t-butyl)-2,3-dihydro-2,2,4-trimethylbenzo[b]furan-7-yl]ethyl-4-hydroxytetrahydropyran-2-one] | –
3 | 300 | CC1(C)Cc2cc(OCc3ccccc3)c(C(C)(C)C)c(CC[C@H]3C[C@H](O)CC(=O)O3)c2O1 (racemic) [Compound No. 124, trans-(±)-6-[5-benzyloxy-6-(t-butyl)-2,3-dihydro-2,2-dimethylbenzo[b]furan-7-yl]ethyl-4-hydroxytetrahydropyran-2-one] | –
4 | 250 | CC(C)c1c(OCc2ccccc2)cc2c(c1CC[C@H]1C[C@H](O)CC(=O)O1)OC(C)(C)C2 (racemic) [Compound No. 154, trans-(±)-6-[5-benzyloxy-2,3-dihydro-2,2-dimethyl-6-(2-propyl)benzo[b]furan-7-yl]ethyl-4-hydroxytetrahydropyran-2-one] | –
5 | 18 | Cc1c(CC[C@@H]2C[C@@H](O)CC(=O)O2)c2c(c(C)c1OC(=O)c1cccnc1)CCC(C)(C)O2 (relative stereo) [Compound No. 52, trans-(±)-6-[[6-pyridine-3-carboxy)-2,2,5,7-tetramethyl]-chroman-8-yl]ethyl-4-hydroxytetrahydropyran-2-one] | 19
6 | 180 | Cc1c2c(c(CC[C@@H]3C[C@@H](O)CC(=O)O3)c(C(C)C)c1OC(=O)c1cccnc1)OC(C)(C)C2 (relative stereo) [Compound No. 156, trans-(±)-6-[2,3-dihydro-6-(2-propyl)-5-(pyridine-3-carboxy)-2,2,4-trimethylbenzo[b]furan-7-yl]ethyl-4-hydroxytetrahydropyran-2-one] | –

The next lines start with the compound.

Row | Compound | Inhibiting Activity (Inhibiting Ratio of Biosynthesis of Cholesterol), relative value when the value of compactin is 100 (HMG Co-A Reductase) | Anti-oxidation Function (rat brain homogenate)
7 | Cc1c(O)c(C)c2c(c1CC[C@H]1C[C@H](O)CC(=O)O1)OC(C)(C)C2 (racemic) [Compound No. 14, trans-(±)-6-(2,3-dihydro-5-hydroxy-2,2,4,6-tetramethylbenzo[b]furan-7-yl)ethyl-4-hydroxytetrahydropyran-2-one] | 11 | 106
8 | CC(=O)Oc1c(C)c(CC[C@H]2C[C@H](O)CC(=O)O2)c2c(c1C)CC(C)(C)O2 (racemic) [Compound No. 33, trans-(±)-6-(5-acetoxy-2,3-dihydro-2,2,4,6-tetramethylbenzo[b]furan-7-yl)ethyl-4-hydroxytetrahydropyran-2-one] | 21 | –
9 | Cc1c(CC[C@@H]2C[C@@H](O)CC(=O)O2)c2c(c(C)c1OCc1ccccc1)CC(C)(C)O2 (relative stereo) [Compound No. 13, trans-(±)-6-(5-benzyloxy-2,3-dihydro-2,2,4,6-tetramethylbenzo[b]furan-7-ethyl-4-hydroxytetrahydropyran-2-one] | 50 | –
10 | Cc1c(CC[C@@H]2C[C@@H](O)CC(=O)O2)c2c(c(C)c1OC(=O)c1cccnc1)CC(C)(C)O2 (relative stereo) [Compound No. 31, trans-(±)-6-[2,3-dihydro-5-(pyridine-3-carboxy)-2,2,4,6-tetramethylbenzo[b]furan-7-yl]ethyl-4-hydroxytetrahydropyran-2-one] | 90 | –
11 | Cc1c(CC[C@@H]2C[C@@H](O)CC(=O)O2)c2c(c(C)c1OCc1ccccc1)CCC(C)(C)O2 (relative stereo) [Compound No. 45] | 39 | –
12 | Cc1c(O)c(C)c2c(c1CC[C@@H]1C[C@@H](O)CC(=O)O1)OC(C)(C)CC2 (relative stereo) [Compound No. 46, trans-(±)-6-[(6-hydroxy-2,2,5,7-tetramethyl)chroman-8-yl]ethyl-4-hydroxytetrahydropyran-2-one] | 28 | 106
13 | CC(=O)Oc1c(C)c(CC[C@@H]2C[C@@H](O)CC(=O)O2)c2c(c1C)CCC(C)(C)O2 (relative stereo) [Compound No. 50, trans-(±)-6-[(6-acetoxy-2,2,5,7-tetramethyl)chroman-8-yl]ethyl-4-hydroxytetrahydropyran-2-one] | 12 | 106
14 | Vitamin E [reference compound] | – | 100
